Source: US20110045101A1, “FUNGICIDAL SUBSTITUTED AZOLES” (E.I. Du Pont De Nemours and Company, priority 2009, published 2011)
Marks after values point to notes of the source that are not given here.

Assays:
Format in all cases: in vivo
Conditions in all cases: 100 = 100% disease control
Botrytis cinerea = assay: Test C: tomato Botrytis on tomato seedlings, sprayed the day before inoculation, visual disease rating
Summary of the method: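 Disease ratings refer to tomato seedlings treated by run-off spraying with compound suspensions, mostly 200 ppm (500 g/ha equivalent) and in marked cases 40 ppm. Carrier: acetone/purified water 50/50 with 250 ppm polyhydric alcohol ester surfactant, after predissolving in acetone.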

Alternaria solani = assay: Test D: tomato early blight, sprayed the day before inoculation, visual disease rating
Summary of the method: (§1)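 Acetone solution (3% of final volume) of each compound is suspended in 50/50 acetone/water with 250 ppm Trem® 014. Plants are sprayed to run-off at 200 ppm, equivalent to 500 g/ha, or at 40 ppm for starred values.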

Septoria nodorum = assay: Test F: wheat glume blotch on wheat seedlings, sprayed the day before inoculation, visual disease rating
Summary of the method: as §1

Septoria tritici = assay: Test G: wheat leaf blotch on wheat seedlings, sprayed the day before inoculation, visual disease rating
Summary of the method: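 Seedlings receive a protective spray of test suspension in acetone/water carrying 250 ppm surfactant, mostly at 200 ppm and at 40 ppm where marked. They are inoculated the next day, kept saturated at 24° C for 48 h, then held at 20° C for 19 days before visual scoring.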

[1] = test system: Puccinia recondita f. sp. tritici; assay: Test H: wheat leaf rust, test suspension sprayed after inoculation of wheat seedlings, visual disease rating
Summary of the method: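 Wheat seedlings inoculated with P. recondita spores, held 24 h saturated at 20 °C, then 2 days in growth chamber at 20 °C; compound suspension (acetone/water with Trem 014) sprayed to run-off afterwards. Rated visually; 200 ppm (≈500 g/ha) unless marked *, which denotes 40 ppm.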

[2] = test system: Puccinia recondita f. sp. tritici; assay: Test I: wheat leaf rust on wheat seedlings, sprayed the day before inoculation, visual disease rating
Summary of the method: as §1

[3] = test system: Erysiphe graminis f. sp. tritici; assay: Test J: wheat powdery mildew on wheat seedlings, sprayed the day before inoculation, visual disease rating
Summary of the method: as §1

[4] = 200 ppm, 0 = no control relative to controls
[5] = 40 ppm (marked *), 0 = no control

Row | SMILES | Test C disease control rating (Botrytis cinerea; [4]) [%] | Test D disease control rating (Alternaria solani; [4]) [%] | Test F disease control rating (Septoria nodorum; [4]) [%] | Test G disease control rating (Septoria tritici; [4]) [%] | Test H disease control rating [1, 4] [%] | Test I disease control rating [2, 4] [%] | Test J disease control rating [3, 4] [%] | other results
1 | Cc1nc(Br)c(Cc2c(F)cc(F)cc2F)n1-c1ccc(Cl)cc1 [compound 532] | 97 | 0 | 0 | 99 | 0 | 99 | 91 | 
2 | Fc1cccc(F)c1-c1c(Cl)nc(Cl)n1-c1ccccc1 [compound 591] | 100 | 100 | 0 | 97 | 96 | 98 | 98 | 
3 | Fc1ccc(F)c(-c2c(Br)nc(Br)n2-c2ccc(Cl)cc2)c1Cl [compound 374] | 99 | 99 | 0 | 94 | 0 | 90 | 98 | 
4 | Cc1ncn(-c2ccc(Cl)c(F)c2)c1-c1ccc(Br)cn1 [compound 347] | 93 | 0 | 0 | 70 | 26 | 9 | 0 | 
5 | Cc1ccc(-n2c(C)nc(C)c2-c2c(F)ccc(F)c2F)cc1 [compound 490] |  |  |  |  |  |  |  | Test C disease control rating (Botrytis cinerea; 40 ppm (marked *)): 97* %; Test D disease control rating (Alternaria solani; 40 ppm (marked *)): 99* %; Test F disease control rating (Septoria nodorum; 40 ppm (marked *)): 0* %; Test G disease control rating (Septoria tritici; 40 ppm (marked *)): 87* %; Test H disease control rating ([1]; 40 ppm (marked *)): 0* %; Test I disease control rating ([2]; 40 ppm (marked *)): 76* %; Test J disease control rating ([3]; 40 ppm (marked *)): 100* %
6 | Cc1ncn(-c2ccc(Cl)c(F)c2)c1-c1cccnc1Cl [compound 348] | 0 | 0 | 0 | 8 | 0 | 0 | 27 | 
7 | COc1cc(F)c(-c2c(Cl)nc(Br)n2-c2ccc(OC(F)F)cc2)c(F)c1 [compound 546] | 100 | 100 | 99 | 98 | 0 | 100 | 100 | 
8 | CCOc1ccc(F)c(-c2c(Cl)nc(Cl)n2-c2ccc(Cl)cc2)c1F [compound 664] | 100 | 99 | 96 | 99 | 46 | 97 | 100 | 
9 | COC(=O)c1ccc(-n2c(Br)nc(Cl)c2-c2c(F)cccc2F)cc1 [compound 690] | 78 | 0 | 0 | 98 | 0 | 74 | 81 | 
10 | COc1cc(F)c(-c2c(Cl)nc(C)n2-c2ccc(OC(F)F)cc2)c(F)c1 [compound 569] | 100 | 100 | 100 | 97 | 84 | 100 | 99 | 
11 | COc1cc(F)c(-c2c(C)nc(Cl)n2-c2ccc(C(F)(F)F)nc2)c(F)c1 [compound 732] | 100 | 100 | 100 | 99 | 0 | 99 | 100 | 
12 | Cn1c(-c2c(Br)nc(Br)n2-c2ccc(Cl)cc2)nc(Br)c1Br [compound 372] | 99 | 0 | 0 | 91 | 0 | 74 | 0 | 
13 | Cc1ccc(-n2c(Cl)nc(Br)c2-c2c(F)ccc(F)c2F)cc1 [compound 465] |  |  |  |  |  |  |  | Test C disease control rating (Botrytis cinerea; 40 ppm (marked *)): 100* %; Test D disease control rating (Alternaria solani; 40 ppm (marked *)): 99* %; Test F disease control rating (Septoria nodorum; 40 ppm (marked *)): 0* %; Test G disease control rating (Septoria tritici; 40 ppm (marked *)): 88* %; Test H disease control rating ([1]; 40 ppm (marked *)): 0* %; Test I disease control rating ([2]; 40 ppm (marked *)): 99* %; Test J disease control rating ([3]; 40 ppm (marked *)): 99* %
14 | COc1cc(F)c(-c2c(Cl)nc(C)n2Cc2ccc(C)cc2)c(F)c1 [compound 296] |  |  |  |  |  |  |  | Test C disease control rating (Botrytis cinerea; 200 ppm, 0 = no control): 100%; Test D disease control rating (Alternaria solani; 200 ppm, 0 = no control): 96%; Test F disease control rating (Septoria nodorum; 200 ppm, 0 = no control): 86%; Test G disease control rating (Septoria tritici; 200 ppm, 0 = no control): 96%; Test H disease control rating ([1]; 200 ppm, 0 = no control): 17%; Test I disease control rating ([2]; 200 ppm, 0 = no control): 99%; Test J disease control rating ([3]; 200 ppm, 0 = no control): 97%
15 | COc1ccc(-c2c(Cl)ncn2-c2ccc(F)cc2)c(Cl)c1 [compound 726] | 99 | 99 | 0 | 99 | 0 | 80 | 89 | 
16 | Fc1ccc(-n2c(Cl)nc(Cl)c2-c2ccc(Cl)c(F)c2)c(Cl)c1 [compound 302] | 100 | 100 | 0 | 94 | 17 | 98 | 100 | 
17 | COc1cc(F)c(-c2c(Cl)ncn2-c2cccc(OC(F)F)c2)c(F)c1 [compound 556] | 100 | 99 | 98 | 95 | 87 | 100 | 97 | 
18 | Cc1nc(Cl)c(Cc2c(F)cc(F)cc2F)n1-c1c(Cl)cccc1Cl [compound 537] | 99 | 76 | 60 | 97 | 9 | 100 | 99 | 
19 | Fc1cc(-c2c(CCl)nc(Cl)n2-c2ccc(Cl)c(F)c2)ccn1 [compound 322] |  |  |  |  |  |  |  | Test C disease control rating (Botrytis cinerea; [5]): 62* %; Test D disease control rating (Alternaria solani; [5]): 0* %; Test F disease control rating (Septoria nodorum; [5]): 0* %; Test G disease control rating (Septoria tritici; [5]): 0* %; Test H disease control rating [1, 5]: 63* %; Test I disease control rating [2, 5]: 28* %; Test J disease control rating [3, 5]: 0* %
20 | CSc1sc(-c2c(Br)nc(Br)n2-c2ccc(Cl)cc2)cc1Br [compound 408] |  |  |  |  |  |  |  | Test C disease control rating (Botrytis cinerea; [5]): 0* %; Test D disease control rating (Alternaria solani; [5]): 0* %; Test F disease control rating (Septoria nodorum; [5]): 0* %; Test G disease control rating (Septoria tritici; [5]): 3* %; Test H disease control rating [1, 5]: 0* %; Test I disease control rating [2, 5]: 0* %; Test J disease control rating [3, 5]: 0* %
21 | Cc1nc(Cl)c(-c2c(F)cccc2F)n1-c1ccc(Cl)nc1 [compound 666] | 100 | 100 | 99 | 99 | 100 | 100 | 100 | 
22 | Cc1ccc(-n2c(C)nc(Cl)c2-c2c(F)cc(OC(F)F)cc2F)cc1 [compound 631] | 99 | 99 | 0 | 100 | 40 | 99 | 100 | 
23 | N#Cc1ccc(-n2cnc(Cl)c2-c2c(F)ccc(C#N)c2F)cc1 [compound 387] | 0 | 0 | 0 | 0 | 0 | 0 | 0 | 
24 | Fc1cc(F)c(-c2c(Cl)ncn2-c2cccc(OC(F)F)c2)c(F)c1 [compound 584] | 99 | 99 | 0 | 98 | 0 | 100 | 99 | 
25 | Clc1ccc(-c2c(Cl)nc(Cl)n2Cc2cccc(Cl)c2)cc1 [compound 361] | 99 | 0 | 0 | 93 | 9 | 74 | 80 | 
